SMILES strings stand for the structures.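 Following 48 hours of exposure in 96-well plates, responses at five concentrations were used to interpolate endpoints linearly. At the GI50, growth is halved. Definition used: TGI = concentration required for complete inhibition of growth.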

Test systems include 786-0 renal; U251 CNS; A549 NSCLC; SR leukemia; CCRF-CEM leukemia; K-562 leukemia; SN12C renal; SK-MEL-28 melanoma; UO-31 renal.
Holding throughout (assay): NCI anticancer screen, dose series, 48 h

Turning to `Clc1cc(Cl)c2ns[s+]c2c1Cl`, the TGI in the assay on 786-0 renal, with U251 CNS, in the assay on A549 NSCLC, with SR leukemia, with CCRF-CEM leukemia and with K-562 leukemia was above 100 µM each time. Besides, the TGI in the assay on SN12C renal, in the assay with SK-MEL-28 melanoma and with UO-31 renal was above 100 µM in each case.
With `CCOC(=O)N[C@@H]1C(CC(=O)OC)O[C@H]2OC(C)(C)O[C@H]21` (stereo partly drawn), the TGI with 786-0 renal, with U251 CNS, in the assay with A549 NSCLC, in the assay with CCRF-CEM leukemia, with K-562 leukemia and in the assay on SN12C renal was above 100 µM each time. The TGI with SK-MEL-28 melanoma and in the assay with UO-31 renal was above 100 µM throughout.
Regarding `CC(=O)C1Cn2c(nc3ccccc32)C[Se]1` (stereo not drawn), the TGI in the assay with 786-0 renal was 9.21 µM; in the assay with U251 CNS, 3.76 µM; with A549 NSCLC, 36.2 µM; with SR leukemia it was 6.96 µM; with CCRF-CEM leukemia, above 100 µM; in the assay on K-562 leukemia, 31.7 µM. Moreover, the TGI with SN12C renal stood at 13.8 µM; in the assay on SK-MEL-28 melanoma, 8.75 µM; in the assay on UO-31 renal, 8.46 µM.
As for `COC(=O)C12CC3CC(CC(C(=O)O)(C3)C1)C2`, the TGI in the assay on 786-0 renal, in the assay with U251 CNS, with A549 NSCLC, in the assay with SR leukemia, in the assay with CCRF-CEM leukemia and in the assay on K-562 leukemia was above 100 µM each time. Further, the TGI in the assay with SN12C renal, with SK-MEL-28 melanoma and in the assay with UO-31 renal was above 100 µM each time.
As for `CC(=O)O[C@H]1CCC2[C@@H]3CC[C@]4(C)CC(=O)C=C[C@]4(C)C3CC[C@@]21C` (stereo partly drawn), the TGI was above 78.2 µM with 786-0 renal; 33.1 µM in the assay with U251 CNS; 37.9 µM with A549 NSCLC; 57.9 µM in the assay with CCRF-CEM leukemia; above 100 µM in the assay with K-562 leukemia; 55.9 µM with SN12C renal. Besides, the results for the TGI in the assay on SK-MEL-28 melanoma and in the assay with UO-31 renal were 33.9 µM and above 100 µM, respectively.
Take `COc1ccc2c3c([nH]c2c1[N+](=O)[O-])C(C)N(C)CC3` (stereo not drawn): the TGI with 786-0 renal was above 100 µM; in the assay with U251 CNS, above 100 µM; with A549 NSCLC it was above 100 µM; with CCRF-CEM leukemia, 95.2 µM; in the assay with K-562 leukemia it was 40.1 µM; in the assay with SN12C renal, above 100 µM. For the same compound, the TGI in the assay on SK-MEL-28 melanoma and in the assay with UO-31 renal was above 100 µM throughout.
`CCCCNC1CCCCC[C@H]1O` (stereo partly drawn): the TGI with 786-0 renal, with U251 CNS, in the assay with A549 NSCLC, with SR leukemia, with CCRF-CEM leukemia and with K-562 leukemia was above 100 µM in each case. Besides, the TGI with SN12C renal, in the assay with SK-MEL-28 melanoma and in the assay on UO-31 renal was above 100 µM each time.
Consider `C=C(C)CCN[Si](c1ccccc1)(c1ccccc1)C(C)(C)C`, for which the TGI in the assay on 786-0 renal is 33.5 µM; with U251 CNS, 30 µM; in the assay on A549 NSCLC, above 100 µM; in the assay with CCRF-CEM leukemia it was 66.4 µM; in the assay with K-562 leukemia it was 63.2 µM; in the assay on SN12C renal it was 32.7 µM. In addition, the TGI in the assay on SK-MEL-28 melanoma is 42.7 µM; in the assay on UO-31 renal, 26.9 µM.
Consider `COC(=O)C(CC(=O)Nc1ccc(C)cc1)C(=O)C(=O)Nc1c(C(C)C)cccc1C(C)C` (stereo not drawn), for which the TGI in the assay with 786-0 renal, in the assay on U251 CNS, in the assay on A549 NSCLC, in the assay with CCRF-CEM leukemia, with K-562 leukemia and in the assay with SN12C renal was above 100 µM each time. In addition, the TGI with SK-MEL-28 melanoma and in the assay on UO-31 renal was above 100 µM throughout.
Regarding `COc1cc(/C=C/c2ccc(OC)c(O)c2)cc(OC)c1`, the TGI was determined as 32.7 µM in the assay on 786-0 renal; 15 µM in the assay on U251 CNS; 33.3 µM in the assay with A549 NSCLC; 15.2 µM in the assay with CCRF-CEM leukemia; 8.64 µM in the assay on K-562 leukemia; 30.3 µM in the assay with SN12C renal. In addition, the results for the TGI in the assay with SK-MEL-28 melanoma and in the assay with UO-31 renal were 24.5 µM and 41.9 µM, respectively.
With `S=c1ssc(N2CCOCC2)c1Cl`, the GI50 in the assay on 786-0 renal is above 100 µM; in the assay on U251 CNS, 15 µM; in the assay on A549 NSCLC it was above 100 µM; in the assay with SR leukemia, 13.3 µM; in the assay on K-562 leukemia, 26.3 µM; in the assay on SN12C renal it was 72.7 µM. Moreover, the GI50 in the assay on SK-MEL-28 melanoma was 38.2 µM; with UO-31 renal it was above 100 µM. Moreover, the TGI was above 100 µM in the assay with 786-0 renal; 28.3 µM in the assay on U251 CNS; above 100 µM in the assay on A549 NSCLC; 65.9 µM in the assay on SR leukemia; above 100 µM in the assay on K-562 leukemia; above 100 µM in the assay on SN12C renal. In addition, the TGI was 57.9 µM with SK-MEL-28 melanoma and above 100 µM in the assay on UO-31 renal.
For `COC(=O)[C@@]12C(=O)C=CC(=O)C1C1C(=CC2C)OC2OC3(CCCCC3)OC21` (stereo partly drawn), the TGI in the assay on 786-0 renal was 32.4 µM; with U251 CNS it was 31.6 µM; with A549 NSCLC, 36.3 µM; in the assay with CCRF-CEM leukemia, 7.49 µM; in the assay on K-562 leukemia, 74.6 µM; in the assay on SN12C renal it was 33.2 µM. The figures for the TGI with SK-MEL-28 melanoma and with UO-31 renal were 33.6 µM and 30.5 µM, respectively.
As for `Nc1ccccc1/C(O)=C1/CCOC1=O`, the TGI with 786-0 renal, with U251 CNS, with A549 NSCLC, in the assay with SR leukemia, in the assay with CCRF-CEM leukemia and in the assay on K-562 leukemia was above 100 µM throughout. Besides, the TGI in the assay with SN12C renal, in the assay with SK-MEL-28 melanoma and with UO-31 renal was above 100 µM throughout.
With `COc1ccc(CN2CC(C)(C)C2=O)c(OC)c1`, the TGI in the assay on 786-0 renal, in the assay on U251 CNS, with A549 NSCLC, with CCRF-CEM leukemia, in the assay on K-562 leukemia and with SN12C renal was above 100 µM each time. The TGI in the assay with SK-MEL-28 melanoma and with UO-31 renal was above 100 µM throughout.
Turning to `c1ccc(C2N3CCCCC3[C@@H]3c4[nH]c5ccccc5c4CCN23)nc1` (stereo partly drawn), the TGI in the assay with 786-0 renal, with U251 CNS, in the assay with A549 NSCLC, in the assay with CCRF-CEM leukemia, with K-562 leukemia and in the assay with SN12C renal was above 100 µM in each case. Moreover, the TGI in the assay with SK-MEL-28 melanoma and in the assay on UO-31 renal was above 100 µM in each case.

The values above are taken from PubChem BioAssay (NCI).
